Measurements: ChEMBL document CHEMBL1146245, “Antitumor agents. 258. Syntheses and evaluation of dietary antioxidant--taxoid conjugates as novel cytotoxic agents” (2007)
Converted amounts (≈) assume the structure as drawn. The source made the active and inactive calls. The rule behind the calls is not given here.

Experiments:
Type in all cases: functional
1A9 = test: Cytotoxicity against human 1A9 cells by sulforhodamine B assay; details: for EC50: read-out: ED50 (the source's name)
KB = test: Cytotoxicity against human KB cells by sulforhodamine B assay; details: for EC50: read-out: ED50 (the source's name)
[1] = Cytotoxicity against MDR human KB-VIN cells expressing P-glycoprotein
HCT-8 = test: Cytotoxicity against human HCT8 cells
A-431 = test: Cytotoxicity against human A431 cells; details: for EC50: read-out: ED50 (the source's name)
A549 = test: Cytotoxicity against human A549 cells

## VITAMIN E
1A9
  Activity: inactive
KB
  Activity: inactive
[1]
  Activity: inactive
HCT-8
  Activity: inactive
A-431
  ED50: 0.75 µg/mL
A549
  Activity: inactive

## CC(=O)O[C@H]1C(=O)[C@]2(C)[C@@H](OC(=O)CCN3CCCCC3)C[C@H]3OC[C@@]3(OC(C)=O)[C@H]2[C@H](OCc2ccccc2)[C@]2(O)C[C@H](OC(=O)[C@H](OC(=O)CCC(=O)Oc3c(C)c(C)c4c(c3C)OC(C)(CCC[C@@H](C)CCC[C@@H](C)CCCC(C)C)CC4)[C@@H](NCc3ccccc3)c3ccccc3)C(C)=C1C2(C)C (stereo partly drawn)
1A9
  Activity: inactive
KB
  Activity: inactive
[1]
  Activity: inactive
HCT-8
  Activity: inactive
A-431
  Activity: inactive
A549
  Activity: inactive

## CC(=O)O[C@H]1C(=O)[C@]2(C)[C@@H](OC(=O)CN(C)C)C[C@H]3OC[C@@]3(OC(C)=O)[C@H]2[C@H](OCc2ccccc2)[C@]2(O)C[C@H](OC(=O)[C@H](OC(=O)/C=C(C)/C=C/C=C(C)/C=C/C3=C(C)CCCC3(C)C)[C@@H](NCc3ccccc3)c3ccccc3)C(C)=C1C2(C)C
1A9
  EC50: 4.47 µg/mL (≈ 3.75 µM)
KB
  EC50: 7.65 µg/mL (≈ 6.41 µM)

## CC(=O)O[C@H]1C(=O)[C@@]2(C)[C@H]([C@H](OCc3ccccc3)[C@]3(O)C[C@H](OC(=O)[C@H](OC(=O)CCC(=O)Oc4c(C)c(C)c5c(c4C)OC(C)(CCC[C@@H](C)CCC[C@@H](C)CCCC(C)C)CC5)[C@@H](NCc4ccccc4)c4ccccc4)C(C)=C1C3(C)C)[C@]1(OC(C)=O)CO[C@@H]1C[C@@H]2O (stereo partly drawn)
1A9
  Activity: inactive
KB
  Activity: inactive
[1]
  Activity: inactive
HCT-8
  Activity: inactive
A-431
  EC50: 0.1 µg/mL (≈ 0.0747 µM)
A549
  Activity: inactive

## CC(=O)O[C@H]1C(=O)[C@]2(C)[C@@H](OC(=O)CCC(=O)O)C[C@H]3OC[C@@]3(OC(C)=O)[C@H]2[C@H](OCc2ccccc2)[C@]2(O)C[C@H](OC(=O)[C@H](OC(=O)CCC(=O)Oc3c(C)c(C)c4c(c3C)OC(C)(CCC[C@@H](C)CCC[C@@H](C)CCCC(C)C)CC4)[C@@H](NCc3ccccc3)c3ccccc3)C(C)=C1C2(C)C.CCN(CC)CC (stereo partly drawn)
A-431
  EC50: 0.2 µg/mL

## CC(=O)O[C@H]1C(=O)[C@@]2(C)[C@H]([C@H](OCc3ccccc3)[C@]3(O)C[C@H](OC(=O)[C@H](OC(=O)CCC(=O)Oc4ccc5c(=O)c(O)c(-c6ccccc6)oc5c4)[C@@H](NCc4ccccc4)c4ccccc4)C(C)=C1C3(C)C)[C@]1(OC(C)=O)CO[C@@H]1C[C@@H]2O
1A9
  EC50: 0.13 µg/mL (≈ 0.112 µM)
KB
  EC50: 0.26 µg/mL (≈ 0.224 µM)

## CC(=O)O[C@H]1C(=O)[C@@]2(C)[C@H]([C@H](OCc3ccccc3)[C@]3(O)C[C@H](OC(=O)[C@H](OC(=O)/C=C(C)/C=C/C=C(C)/C=C/C4=C(C)CCCC4(C)C)[C@@H](NCc4ccccc4)c4ccccc4)C(C)=C1C3(C)C)[C@]1(OC(C)=O)CO[C@@H]1C[C@@H]2O
1A9
  EC50: 0.49 µg/mL (≈ 0.442 µM)
KB
  EC50: 0.2 µg/mL (≈ 0.18 µM)

## CC(=O)O[C@H]1C(=O)[C@@]2(C)[C@H]([C@H](OCc3ccccc3)[C@]3(O)C[C@H](OC(=O)[C@H](OC(=O)CCC(=O)Oc4ccc5c(C)cc(=O)oc5c4)[C@@H](NCc4ccccc4)c4ccccc4)C(C)=C1C3(C)C)[C@]1(OC(C)=O)CO[C@@H]1C[C@@H]2O
1A9
  EC50: 0.005 µg/mL (≈ 0.00461 µM)
KB
  EC50: 0.14 µg/mL (≈ 0.129 µM)

## COc1cccc(/C=C\C(C)=O)c1OC(=O)CCC(=O)O[C@@H](C(=O)O[C@H]1C[C@@]2(O)[C@@H](OCc3ccccc3)[C@@H]3[C@]4(OC(C)=O)CO[C@@H]4C[C@H](OC(=O)CN(C)C)[C@@]3(C)C(=O)[C@H](OC(C)=O)C(=C1C)C2(C)C)[C@@H](NCc1ccccc1)c1ccccc1
1A9
  EC50: 0.19 µg/mL (≈ 0.16 µM)
KB
  EC50: 0.34 µg/mL (≈ 0.287 µM)

## CC(=O)O[C@H]1C(=O)[C@@]2(C)[C@H]([C@H](OCc3ccccc3)[C@]3(O)C[C@H](OC(=O)[C@H](OC(=O)CCC(=O)Oc4cc(O)c5c(=O)cc(-c6ccccc6)oc5c4)[C@@H](NCc4ccccc4)c4ccccc4)C(C)=C1C3(C)C)[C@]1(OC(C)=O)CO[C@@H]1C[C@@H]2O
1A9
  EC50: 0.2 µg/mL (≈ 0.172 µM)
KB
  EC50: 0.47 µg/mL (≈ 0.404 µM)

## CC(=O)O[C@H]1C(=O)[C@]2(C)[C@@H](OC(=O)CCC(=O)O)C[C@H]3OC[C@@]3(OC(C)=O)[C@H]2[C@H](OCc2ccccc2)[C@]2(O)C[C@H](OC(=O)[C@H](OC(=O)CCC(=O)Oc3c(C)c(C)c4c(c3C)OC(C)(CCC[C@@H](C)CCC[C@@H](C)CCCC(C)C)CC4)[C@@H](NCc3ccccc3)c3ccccc3)C(C)=C1C2(C)C (stereo partly drawn) [listing 1 of 2 here]
A-431
  EC50: 0.1 µg/mL (≈ 0.0695 µM)

## CC(=O)O[C@H]1C(=O)[C@]2(C)[C@@H](OC(=O)CN(C)C)C[C@H]3OC[C@@]3(OC(C)=O)[C@H]2[C@H](OCc2ccccc2)[C@]2(O)C[C@H](OC(=O)[C@H](OC(=O)CCC(=O)Oc3c(C)c(C)c4c(c3C)OC(C)(CCC[C@@H](C)CCC[C@@H](C)CCCC(C)C)CC4)[C@@H](NCc3ccccc3)c3ccccc3)C(C)=C1C2(C)C.CS(=O)(=O)O (stereo partly drawn)
A-431
  EC50: 0.1 µg/mL

## COc1cc(/C=C/C(=O)CC(=O)/C=C/c2ccc(O)c(OC)c2)ccc1O [CURCUMIN]
1A9
  Activity: inactive
KB
  Activity: inactive
[1]
  Activity: inactive
HCT-8
  Activity: inactive
A-431
  EC50: 0.75 µg/mL (≈ 2.04 µM)
A549
  Activity: inactive

## COc1cc(/C=C/C(=O)CC(=O)/C=C/c2ccc(OC(=O)CCC(=O)O[C@@H](C(=O)O[C@H]3C[C@@]4(O)[C@@H](OCc5ccccc5)[C@@H]5[C@]6(OC(C)=O)CO[C@@H]6C[C@H](O)[C@@]5(C)C(=O)[C@H](OC(C)=O)C(=C3C)C4(C)C)[C@@H](NCc3ccccc3)c3ccccc3)c(OC)c2)ccc1O
1A9
  EC50: 0.03 µg/mL (≈ 0.0235 µM)
KB
  EC50: 0.01 µg/mL (≈ 0.00783 µM)
[1]; KBVIN, read-out: ED50 (the source's name)
  EC50: 0.2 µg/mL (≈ 0.157 µM)
HCT-8
  Activity: inactive
A-431
  EC50: 0.03 µg/mL (≈ 0.0235 µM)
A549; read-out: ED50 (the source's name)
  EC50: 0.03 µg/mL (≈ 0.0235 µM)

## COc1cc(/C=C/C(C)=O)ccc1OC(=O)CCC(=O)O[C@@H](C(=O)O[C@H]1C[C@@]2(O)[C@@H](OCc3ccccc3)[C@@H]3[C@]4(OC(C)=O)CO[C@@H]4C[C@H](OC(=O)CN(C)C)[C@@]3(C)C(=O)[C@H](OC(C)=O)C(=C1C)C2(C)C)[C@@H](NCc1ccccc1)c1ccccc1
1A9
  EC50: 0.63 µg/mL (≈ 0.531 µM)
KB
  EC50: 0.7 µg/mL (≈ 0.591 µM)

## CC(=O)O[C@H]1C(=O)[C@]2(C)[C@@H](OC(=O)CN(C)C)C[C@H]3OC[C@@]3(OC(C)=O)[C@H]2[C@H](OCc2ccccc2)[C@]2(O)C[C@H](OC(=O)[C@H](OC(=O)CCC(=O)Oc3c(C)c(C)c4c(c3C)OC(C)(C)CC4)[C@@H](NCc3ccccc3)c3ccccc3)C(C)=C1C2(C)C
1A9
  EC50: 1.01 µg/mL (≈ 0.832 µM)
KB
  EC50: 9.79 µg/mL (≈ 8.07 µM)

## CCN(CC)CCC(=O)O[C@H]1C[C@H]2OC[C@@]2(OC(C)=O)[C@H]2[C@H](OCc3ccccc3)[C@]3(O)C[C@H](OC(=O)[C@H](OC(=O)CCC(=O)Oc4c(C)c(C)c5c(c4C)OC(C)(CCC[C@@H](C)CCC[C@@H](C)CCCC(C)C)CC5)[C@@H](NCc4ccccc4)c4ccccc4)C(C)=C([C@@H](OC(C)=O)C(=O)[C@]12C)C3(C)C (stereo in doubt; 27)
1A9
  Activity: inactive
KB
  Activity: inactive
[1]
  Activity: inactive
HCT-8
  Activity: inactive
A-431
  Activity: inactive
A549
  Activity: inactive

## CCN(CC)CCC(=O)O[C@H]1C[C@H]2OC[C@@]2(OC(C)=O)[C@H]2[C@H](OCc3ccccc3)[C@]3(O)C[C@H](OC(=O)[C@H](OC(=O)CCC(=O)Oc4c(C)c(C)c5c(c4C)OC(C)(CCC[C@@H](C)CCC[C@@H](C)CCCC(C)C)CC5)[C@@H](NCc4ccccc4)c4ccccc4)C(C)=C([C@@H](OC(C)=O)C(=O)[C@]12C)C3(C)C (stereo in doubt; 27a)
1A9
  Activity: inactive
KB
  Activity: inactive
[1]
  Activity: inactive
HCT-8
  Activity: inactive
A-431
  Activity: inactive
A549
  Activity: inactive

## CC(=O)O[C@H]1C(=O)[C@@]2(C)[C@H]([C@H](OCc3ccccc3)[C@]3(O)C[C@H](OC(=O)[C@H](OC(=O)CCC(=O)Oc4c(C)c(C)c5c(c4C)OC(C)(C)CC5)[C@@H](NCc4ccccc4)c4ccccc4)C(C)=C1C3(C)C)[C@]1(OC(C)=O)CO[C@@H]1C[C@@H]2O
1A9
  EC50: 0.2 µg/mL (≈ 0.177 µM)
KB
  EC50: 0.94 µg/mL (≈ 0.833 µM)

## CC(=O)O[C@H]1C(=O)[C@]2(C)[C@@H](OC(=O)CCC(=O)O)C[C@H]3OC[C@@]3(OC(C)=O)[C@H]2[C@H](OCc2ccccc2)[C@]2(O)C[C@H](OC(=O)[C@H](OC(=O)CCC(=O)Oc3c(C)c(C)c4c(c3C)OC(C)(CCC[C@@H](C)CCC[C@@H](C)CCCC(C)C)CC4)[C@@H](NCc3ccccc3)c3ccccc3)C(C)=C1C2(C)C (stereo partly drawn) [listing 2 of 2 here]
1A9
  Activity: inactive
KB
  Activity: inactive
[1]
  Activity: inactive
HCT-8
  Activity: inactive
A549
  Activity: inactive

## CC(=O)O[C@H]1C(=O)[C@]2(C)[C@@H](OC(=O)CN(C)C)C[C@H]3OC[C@@]3(OC(C)=O)[C@H]2[C@H](OCc2ccccc2)[C@]2(O)C[C@H](OC(=O)[C@H](OC(=O)CCC(=O)Oc3c(C)c(C)c4c(c3C)OC(C)(CCC[C@@H](C)CCC[C@@H](C)CCCC(C)C)CC4)[C@@H](NCc3ccccc3)c3ccccc3)C(C)=C1C2(C)C (stereo partly drawn) [listing 1 of 2 here]
1A9
  Activity: inactive
KB
  Activity: inactive
[1]
  Activity: inactive
HCT-8
  Activity: inactive
A549
  Activity: inactive

## CC(=O)O[C@H]1C(=O)[C@]2(C)[C@@H](OC(=O)CN(C)C)C[C@H]3OC[C@@]3(OC(C)=O)[C@H]2[C@H](OCc2ccccc2)[C@]2(O)C[C@H](OC(=O)[C@H](OC(=O)CCC(=O)Oc3ccc4c(=O)c(O)c(-c5ccccc5)oc4c3)[C@@H](NCc3ccccc3)c3ccccc3)C(C)=C1C2(C)C
1A9
  EC50: 0.11 µg/mL (≈ 0.0882 µM)
KB
  EC50: 0.09 µg/mL (≈ 0.0722 µM)

## COc1cc(/C=C/C(C)=O)ccc1OC(=O)CCC(=O)O[C@@H](C(=O)O[C@H]1C[C@@]2(O)[C@@H](OCc3ccccc3)[C@@H]3[C@]4(OC(C)=O)CO[C@@H]4C[C@H](O)[C@@]3(C)C(=O)[C@H](OC(C)=O)C(=C1C)C2(C)C)[C@@H](NCc1ccccc1)c1ccccc1
1A9
  EC50: 0.005 µg/mL (≈ 0.00454 µM)
KB
  EC50: 0.005 µg/mL (≈ 0.00454 µM)

## CC(=O)O[C@H]1C(=O)[C@]2(C)[C@@H](OC(=O)CN(C)C)C[C@H]3OC[C@@]3(OC(C)=O)[C@H]2[C@H](OCc2ccccc2)[C@]2(O)C[C@H](OC(=O)[C@H](OC(=O)CCC(=O)Oc3c(C)c(C)c4c(c3C)OC(C)(CCC[C@@H](C)CCC[C@@H](C)CCCC(C)C)CC4)[C@@H](NCc3ccccc3)c3ccccc3)C(C)=C1C2(C)C (stereo partly drawn) [listing 2 of 2 here]
A-431
  EC50: 0.2 µg/mL (≈ 0.14 µM)
